{"source": "ChEMBL document CHEMBL3792320", "about": "“Synthesis, biological evaluation and molecular docking studies of 2-amino-3,4,5-trimethoxyaroylindole derivatives as novel anticancer agents” (2016)", "assay_type_in_all_cases": "functional", "key": {"MCF7 [1]": {"tested_on": "MCF7", "test": "Cytotoxicity against human MCF7 cells assessed as reduction in cell growth after 48 hrs by SRB assay"}, "HT-29": {"tested_on": "HT-29", "test": "Cytotoxicity against human HT-29 cells assessed as reduction in cell growth after 48 hrs by SRB assay"}, "MCF7 [2]": {"tested_on": "MCF7", "test": "Cytotoxicity against human MCF7 cells assessed as reduction in cell viability after 72 hrs by MTS assay", "conditions": "MCF7, 72 h"}}, "note": "Active and inactive are the calls of the source. The calls are words filed in the database; no cut-off is given here.", "data": [{"smiles": "COc1cc(C(=O)c2c[nH]c3c(OC)cccc23)c(N)c(OC)c1OC", "values": [{"measurement": "GI50", "setting": "MCF7 [1]; MCF7, 48 h", "value": 9.96, "unit": "µM"}, {"measurement": "GI50", "setting": "HT-29; HT-29, 48 h", "value": 48.6, "unit": "µM"}]}, {"smiles": "COC(=O)c1[nH]c2ccccc2c1C(=O)c1cc(OC)c(OC)c(OC)c1N", "values": [{"measurement": "GI50", "setting": "MCF7 [1]; MCF7, 48 h", "value": 0.193, "unit": "µM"}, {"measurement": "GI50", "setting": "HT-29; HT-29, 48 h", "value": 2.38, "unit": "µM"}]}, {"smiles": "COc1cc(C(=O)c2c[nH]c3cc(F)ccc23)c(N)c(OC)c1OC", "values": [{"measurement": "GI50", "setting": "MCF7 [1]; MCF7, 48 h", "value": 42.8, "unit": "µM"}, {"measurement": "GI50", "setting": "HT-29; HT-29, 48 h", "value": 64.2, "unit": "µM"}]}, {"smiles": "COc1ccc2c(Cc3cc(OC)c(OC)c(OC)c3N)c[nH]c2c1", "values": [{"measurement": "GI50", "setting": "MCF7 [1]; MCF7, 48 h", "value": 1.83, "unit": "µM"}, {"measurement": "GI50", "setting": "HT-29; HT-29, 48 h", "value": 74.8, "unit": "µM"}]}, {"smiles": "CCOC(=O)c1[nH]c2ccccc2c1C(=O)c1cc(OC)c(OC)c(OC)c1N", "values": [{"measurement": "GI50", "setting": "MCF7 [1]; MCF7, 48 h", "value": 0.48, "unit": "µM"}, {"measurement": "GI50", "setting": "HT-29; HT-29, 48 h", "value": 5.63, "unit": "µM"}]}, {"smiles": "COc1ccc2[nH]cc(Cc3cc(OC)c(OC)c(OC)c3N)c2c1", "values": [{"measurement": "GI50", "setting": "MCF7 [1]; MCF7, 48 h", "value": 32.8, "unit": "µM"}, {"measurement": "GI50", "setting": "HT-29; HT-29, 48 h", "value": "> 100", "unit": "µM"}]}, {"smiles": "COc1cc(C(=O)c2c[nH]c3ccc(Br)cc23)c(N)c(OC)c1OC", "values": [{"measurement": "GI50", "setting": "MCF7 [1]; MCF7, 48 h", "value": 0.36, "unit": "µM"}, {"measurement": "GI50", "setting": "HT-29; HT-29, 48 h", "value": 3.83, "unit": "µM"}]}, {"smiles": "COc1ccc(/C=C\\c2cc(OC)c(OC)c(OC)c2)cc1O", "note": "[COMBRETASTATIN A4]", "values": [{"measurement": "GI50", "setting": "MCF7 [1]; MCF7, 48 h", "value": 0.025, "unit": "µM"}, {"measurement": "GI50", "setting": "HT-29; HT-29, 48 h", "value": 0.26, "unit": "µM"}]}, {"smiles": "COc1cc(Cc2c[nH]c3cc(F)ccc23)c(N)c(OC)c1OC", "values": [{"measurement": "GI50", "setting": "MCF7 [1]", "value": "inactive"}, {"measurement": "GI50", "setting": "HT-29", "value": "inactive"}]}, {"smiles": "COc1cc(Cc2c[nH]c3cccc(OC)c23)c(N)c(OC)c1OC", "values": [{"measurement": "GI50", "setting": "MCF7 [1]", "value": "inactive"}, {"measurement": "GI50", "setting": "HT-29", "value": "inactive"}]}, {"smiles": "COc1cc(C(=O)c2c[nH]c3cccc(OC)c23)c(N)c(OC)c1OC", "values": [{"measurement": "GI50", "setting": "MCF7 [1]; MCF7, 48 h", "value": "> 100", "unit": "µM"}, {"measurement": "GI50", "setting": "HT-29; HT-29, 48 h", "value": "> 100", "unit": "µM"}]}, {"smiles": "COc1ccc2c(C(=O)c3cc(OC)c(OC)c(OC)c3)c[nH]c2c1", "values": [{"measurement": "GI50", "setting": "MCF7 [2]", "value": 0.007, "unit": "µM"}]}, {"smiles": "COc1cc(C(=O)c2c[nH]c3ccc(C)cc23)c(N)c(OC)c1OC", "values": [{"measurement": "GI50", "setting": "MCF7 [1]; MCF7, 48 h", "value": 12.3, "unit": "µM"}, {"measurement": "GI50", "setting": "HT-29; HT-29, 48 h", "value": "> 100", "unit": "µM"}]}, {"smiles": "COc1cc(Cc2c[nH]c3c(OC)cccc23)c(N)c(OC)c1OC", "values": [{"measurement": "GI50", "setting": "MCF7 [1]", "value": "inactive"}, {"measurement": "GI50", "setting": "HT-29", "value": "inactive"}]}, {"smiles": "COc1cc(C(=O)c2c[nH]c3ccc(Cl)cc23)c(N)c(OC)c1OC", "values": [{"measurement": "GI50", "setting": "MCF7 [1]; MCF7, 48 h", "value": 0.321, "unit": "µM"}, {"measurement": "GI50", "setting": "HT-29; HT-29, 48 h", "value": 4.85, "unit": "µM"}]}, {"smiles": "COC(=O)c1[nH]c2ccc(OC)cc2c1C(=O)c1cc(OC)c(OC)c(OC)c1N", "values": [{"measurement": "GI50", "setting": "MCF7 [1]; MCF7, 48 h", "value": 0.102, "unit": "µM"}, {"measurement": "GI50", "setting": "HT-29; HT-29, 48 h", "value": 1.24, "unit": "µM"}]}, {"smiles": "COc1cc(Cc2c[nH]c3ccc(C)cc23)c(N)c(OC)c1OC", "values": [{"measurement": "GI50", "setting": "MCF7 [1]", "value": "inactive"}, {"measurement": "GI50", "setting": "HT-29", "value": "inactive"}]}, {"smiles": "COc1ccc2[nH]cc(C(=O)c3cc(OC)c(OC)c(OC)c3N)c2c1", "values": [{"measurement": "GI50", "setting": "MCF7 [1]; MCF7, 48 h", "value": 0.528, "unit": "µM"}, {"measurement": "GI50", "setting": "HT-29; HT-29, 48 h", "value": 0.95, "unit": "µM"}]}, {"smiles": "COc1ccc2c(C(=O)c3cc(OC)c(OC)c(OC)c3N)c[nH]c2c1", "values": [{"measurement": "GI50", "setting": "MCF7 [1]; MCF7, 48 h", "value": 0.013, "unit": "µM"}, {"measurement": "GI50", "setting": "HT-29; HT-29, 48 h", "value": 0.143, "unit": "µM"}]}, {"smiles": "COc1cc2[nH]cc(Cc3cc(OC)c(OC)c(OC)c3N)c2cc1OC", "values": [{"measurement": "GI50", "setting": "MCF7 [1]", "value": "inactive"}, {"measurement": "GI50", "setting": "HT-29", "value": "inactive"}]}, {"smiles": "CCOC(=O)c1[nH]c2ccc(OC)cc2c1C(=O)c1cc(OC)c(OC)c(OC)c1N", "values": [{"measurement": "GI50", "setting": "MCF7 [1]; MCF7, 48 h", "value": 0.54, "unit": "µM"}, {"measurement": "GI50", "setting": "HT-29; HT-29, 48 h", "value": 5.15, "unit": "µM"}]}, {"smiles": "COC(=O)c1[nH]c2ccc(Br)cc2c1C(=O)c1cc(OC)c(OC)c(OC)c1N", "values": [{"measurement": "GI50", "setting": "MCF7 [1]; MCF7, 48 h", "value": 0.124, "unit": "µM"}, {"measurement": "GI50", "setting": "HT-29; HT-29, 48 h", "value": 1.94, "unit": "µM"}]}, {"smiles": "CCOC(=O)c1[nH]c2ccc(Cl)cc2c1C(=O)c1cc(OC)c(OC)c(OC)c1N", "values": [{"measurement": "GI50", "setting": "MCF7 [1]; MCF7, 48 h", "value": 0.59, "unit": "µM"}, {"measurement": "GI50", "setting": "HT-29; HT-29, 48 h", "value": 6.84, "unit": "µM"}]}, {"smiles": "COc1cc(Cc2c[nH]c3ccccc23)c(N)c(OC)c1OC", "values": [{"measurement": "GI50", "setting": "MCF7 [1]; MCF7, 48 h", "value": 45, "unit": "µM"}, {"measurement": "GI50", "setting": "HT-29; HT-29, 48 h", "value": "> 100", "unit": "µM"}]}, {"smiles": "COc1cc2[nH]cc(C(=O)c3cc(OC)c(OC)c(OC)c3N)c2cc1OC", "values": [{"measurement": "GI50", "setting": "MCF7 [1]; MCF7, 48 h", "value": 38.5, "unit": "µM"}, {"measurement": "GI50", "setting": "HT-29; HT-29, 48 h", "value": 24.4, "unit": "µM"}]}, {"smiles": "COc1cc(Cc2c[nH]c3ccc(Br)cc23)c(N)c(OC)c1OC", "values": [{"measurement": "GI50", "setting": "MCF7 [1]", "value": "inactive"}, {"measurement": "GI50", "setting": "HT-29", "value": "inactive"}]}, {"smiles": "COC(=O)c1[nH]c2ccc(Cl)cc2c1C(=O)c1cc(OC)c(OC)c(OC)c1N", "values": [{"measurement": "GI50", "setting": "MCF7 [1]; MCF7, 48 h", "value": 0.171, "unit": "µM"}, {"measurement": "GI50", "setting": "HT-29; HT-29, 48 h", "value": 2.14, "unit": "µM"}]}, {"smiles": "CCOC(=O)c1[nH]c2ccc(Br)cc2c1C(=O)c1cc(OC)c(OC)c(OC)c1N", "values": [{"measurement": "GI50", "setting": "MCF7 [1]; MCF7, 48 h", "value": 0.425, "unit": "µM"}, {"measurement": "GI50", "setting": "HT-29; HT-29, 48 h", "value": 5.38, "unit": "µM"}]}, {"smiles": "COc1cc(Cc2c[nH]c3ccc(Cl)cc23)c(N)c(OC)c1OC", "values": [{"measurement": "GI50", "setting": "MCF7 [1]", "value": "inactive"}, {"measurement": "GI50", "setting": "HT-29", "value": "inactive"}]}, {"smiles": "COc1cc(C(=O)c2c[nH]c3ccccc23)c(N)c(OC)c1OC", "values": [{"measurement": "GI50", "setting": "MCF7 [1]; MCF7, 48 h", "value": 0.9, "unit": "µM"}, {"measurement": "GI50", "setting": "HT-29; HT-29, 48 h", "value": 9.8, "unit": "µM"}]}]}
